From patent US20090186047A1, “HCV Vaccinations” (INTERCELL AG, priority 2006, published 2009) come the findings set out here.

The subject of this test is HCV peptide-specific T cells (MHC class I-restricted CD8+ / MHC class II-restricted CD4+). Put plainly: IFN-γ ELIspot assay of spleen cells after vaccination of mice. The class given is in vivo, HLA-A*0201 transgenic mice (HHD.2). The protocol:
Vaccine: clinical batch PD03127 (lot K) Injection volume of 100 μl per mouse contains:
As adjuvant: Poly-L-Arginine with an average degree of polymerisation of 40 to 50 arginine residues (determined by multiple angle laser light scattering (MALLS)); lot 113K7277; Sigma Aldrich Inc.; 400 μg • Additional adjuvant: Aldara™ containing 5% Imiquimod, an immunostimulatory agent acting via TLR7; 3M Health Care Ltd.; dose: approx 20 mg/mouse • Formulation buffer: 5 mM phosphate/270 mM sorbitol Experimental set-up 10 mice per group • 1. subcutaneous injection into the flank • 2. intradermal injection into the back • 3. intradermal injection into the back followed by immediate application of Aldara™ cream at injection area
On days 0, 14 and 28 mice were injected with a total amount of 100 μl/vaccine/mouse containing the above listed compounds at different sites as indicated. Spleens were harvested for each experimental group on day 35 and enriched for CD4^+ T cells by magnetic separation (MACS). CD4^+ T cell-depleted spleen cells were used to determine the CD8^+ T cell response. MHC class II restricted (CD4^+ T cells) as well as MHC class I restricted T cell responses (CD8^+ T cells) against each single HCV-derived peptide were determined using an IFN-7 ELIspot assay. In general, restimulation with an irrelevant peptide induced no IFN-7 production.
Vaccine: Injection volume of 100 μl per mouse contains: As antigens: Ipep 83 200 μg, Ipep 84 200 μg, Ipep 87 200 μg, Ipep 89 200 μg, Ipep 1426 200 μg As adjuvant: Poly-L-Arginine with an average degree of polymerization of 40 to 50 arginine residues (determined by MALLS); lot 113K7277; Sigma Aldrich Inc.; 400 μg • Additional adjuvant: Aldara™ containing 5% Imiquimod, an immunostimulatory agent acting via TLR7; 3M Health Care Ltd.; dose: approx 20 mg/mouse • Formulation buffer: 5 mM phosphate/270 mM sorbitol Experimental set-up 30 mice per group (10 per time point of analysis) • 1. intradermal injection into the back • 2. intradermal injection into the back followed by immediate application of Aldara™ cream at injection area […]

Where [1] appears, read: Example 1: subcutaneous injection into the flank, days 0, 14 and 28, spleens day 35.

For the sequence GYKVLVLNPSVAAT [Ipep 84], under setting [1], the “MHC class I-restricted CD8+ T cell response (IFN-γ ELIspot)” value is recorded as “could be detected” and the “MHC class II-restricted CD4+ T cell response (IFN-γ ELIspot)” value is given as “could be detected”. Moreover, the “IFN-γ production by MHC class I-restricted CD8+ T cells” value (Example 2: two intradermal injections, day 21) is “induced in comparable strength”.
